Experimental data taken from patent US3951987A, “Tetrahydropyridine derivatives” (priority 1975, dated 1976).

How the values were obtained:
rats = assay: Standard "open field" test (50 percent decrease in the number of diameter crossings vs untreated controls); format: in vivo; settings: Rattus norvegicus, po, read-out: ED50 (dosage which caused a 50 percent decrease in the number of diameter crossings)
Description: The dosage which caused a 50 percent decrease (in comparison to the untreated controls) in the number of diameter crossings is expressed as the ED50.

Toxicity (mouse), p.o. = settings: in vivo, po

Structure (SMILES) | ED50 (rats) | LD50 (Toxicity (mouse), p.o.)
CCC(=O)Nc1ccc(OCCN2CC=C(c3ccc(F)cc3)CC2)cc1 [4'-[2-[4-(p-fluoro-phenyl)-3,6-dihydro-1(2H)-pyridyl)-ethoxy]-propionanilide] | 0.6 mg/kg | 150 to 300 mg/kg
CC(=O)Nc1ccc(OCCN2CC=C(c3ccc(F)cc3)CC2)cc1 [4'-{2-[4-(p-fluorophenyl)-3,6-dihydro-1(2H)-pyridyl]ethoxy}acetanilide] | 0.6 mg/kg | 250 to 500 mg/kg
Nc1ccc(OCCN2CC=C(c3ccc(F)cc3)CC2)cc1 [p-[2-[4-(p-fluoro-phenyl)-3,6-dihydro-1(2H)-pyridyl]-ethoxy]-aniline] | 0.6 mg/kg | 250 to 500 mg/kg
